SMILES strings stand for the structures.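 Values below derive from 48-hour exposures of cells grown in 96-well plates, with endpoints linearly interpolated between the two concentrations bracketing the appropriate inhibition level. GI50 is the concentration that inhibits growth by half.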 Activity calls are given as the source filed them. Cut-off read from the data, not from the text of the source: active = GI50 up to about 1.1 µM and inactive = higher.

Test systems include SN12C; ACHN; UACC-62; LOX IMVI; MOLT-4; OVCAR-4; SK-MEL-2; TK-10; HCC 2998; Malme-3M; HT-29; A549; MDA-MB-231; KM12; EKVX; MDA-MB-435; A498; NCI-H522; DU-145; PC-3.
Common to all, as to assay: NCI anticancer screen, dose series, 48 h

As to `N#CC1=C(N)N(c2ccccc2)C(c2ccco2)C1(C#N)C#N` (stereo not given), the GI50 with SN12C is 30.3 µM (inactive); with ACHN it was 16.7 µM (inactive); in the assay on UACC-62, 23.2 µM (inactive); in the assay with LOX IMVI it was 16.7 µM (inactive); in the assay with MOLT-4 it was 25.5 µM (inactive); in the assay on OVCAR-4, 21.3 µM (inactive). Besides, the GI50 with SK-MEL-2 was 27.5 µM (inactive); in the assay with TK-10, 16.4 µM (inactive); with HCC 2998, 16.4 µM (inactive); with Malme-3M, 22.9 µM (inactive); in the assay with HT-29, 20 µM (inactive); in the assay with A549, 38.2 µM (inactive). Moreover, the GI50 with MDA-MB-231 is 15.3 µM (inactive); in the assay on KM12 it was 17.4 µM (inactive); in the assay with EKVX, 20 µM (inactive); in the assay on MDA-MB-435, 28.4 µM (inactive); in the assay on A498 it was 21.8 µM (inactive); with NCI-H522 it was 16.7 µM (inactive). The GI50 was 19.4 µM (inactive) with DU-145 and 27.4 µM (inactive) in the assay with PC-3.

As for `OC(COc1ccccc1)CN1CCCCC1` (stereo not given), the GI50 with SN12C, with ACHN, with UACC-62, in the assay with LOX IMVI, in the assay on MOLT-4 and with OVCAR-4 was > 100 µM (inactive) throughout. Besides, the GI50 in the assay with SK-MEL-2, in the assay on TK-10, with HCC 2998, in the assay on Malme-3M, in the assay on HT-29 and in the assay with A549 was > 100 µM (inactive) throughout. The GI50 in the assay with MDA-MB-231 is > 100 µM (inactive); with KM12 it was > 100 µM (inactive); in the assay with EKVX it was 63.4 µM (inactive); in the assay with MDA-MB-435 it was > 100 µM (inactive); in the assay with A498, > 100 µM (inactive); with NCI-H522 it was > 100 µM (inactive). Also, the GI50 with DU-145 and in the assay on PC-3 was > 100 µM (inactive) in each case.

In the case of `Cc1c2c(c(C)n1-c1ccccc1)C(=O)N(CCN1CCN(c3cccc(C(F)(F)F)c3)CC1)C2=O`, the GI50 in the assay with SN12C was 45 µM (inactive); in the assay with ACHN, > 100 µM (inactive); in the assay with UACC-62 it was > 100 µM (inactive); with LOX IMVI, 37.1 µM (inactive); in the assay with MOLT-4, 6.03 µM (inactive); with OVCAR-4, 7.35 µM (inactive). Further, the GI50 is 0.719 µM (active) in the assay on SK-MEL-2; > 100 µM (inactive) with TK-10; 97.5 µM (inactive) in the assay on HCC 2998; > 100 µM (inactive) with Malme-3M; 10.6 µM (inactive) in the assay on HT-29; 46.6 µM (inactive) in the assay with A549. Besides, the GI50 in the assay with MDA-MB-231 is > 100 µM (inactive); in the assay with KM12, 30.5 µM (inactive); with EKVX, 8.02 µM (inactive); in the assay with MDA-MB-435 it was > 100 µM (inactive); with A498, > 100 µM (inactive); in the assay on NCI-H522, 14.1 µM (inactive). The GI50 was > 100 µM (inactive) in the assay with DU-145 and 18.8 µM (inactive) in the assay with PC-3.
